Test results: US20140079741A1, “INHIBITION AND TREATMENT OF BIOFILMS” (priority 2011, published 2014)

How the values were obtained:
[1] = test system: planktonic cultures of C. albicans CAF2-1; experiment: MIC50 against planktonic cultures (NCCLS M27-A3); format: cell-based, Candida albicans; conditions: diclofenac up to 2 mM
Method: (§1) Similar results were obtained by determination of the MIC50 values. The susceptibility testing and determination of minimal inhibitory concentrations (MIC) of diclofenac and caspofungin, and combinations thereof that inhibit fungal growth by 50% (MIC50) were performed according the NCCLS M27-A3 protocol (2008).

[2] = test system: C. albicans biofilms grown on catheters; experiment: In vitro biofilm drug susceptibility on polyurethane catheter pieces (CFU); format: cell-based, Candida albicans; conditions: 2 mM diclofenac pretreatment alone
Method: In an alternative setup, in vitro biofilm drug susceptibility assays were performed using serum-coated 1 cm polyurethane catheter pieces (Arrow International Reading) as described previously. Biofilms were grown in RPMI 1640 (pH 7.0) and Candida cells were allowed to adhere to the substrate for 90 min.
Diclofenac (2 mM) was administered during the period of adhesion of C. albicans cells on the catheters and throughout the period of biofilm formation. Catheter fragments containing diclofenac-pretreated or untreated mature biofilms were washed and subsequently incubated with caspofungin (125 μM) or water in the presence or absence of diclofenac (2 mM) for 24 h, respectively. Biofilms were washed and quantified by determination of colony forming units. Untreated biofilms were considered as controls. Statistical analysis was performed using unpaired t-test; differences were considered significant if p<0.05. Data are the mean and SEM of five independent experiments using at least two catheters per test group.
Similar results were obtained when assessing the antibiofilm effect of caspofungin against mature biofilms, which were formed on diclofenac-soaked catheter fragments versus those formed on unsoaked catheter fragments.

[3] = test system: biofilms of C. albicans CAF2-1; experiment: MIC50 against biofilms (XTT reduction assay); format: cell-based, Candida albicans; conditions: Candida albicans, biofilms, diclofenac alone
Method: Using the same setup as above, WT biofilms grown in the presence or absence of diclofenac (0.5-3 mM or 148-888 μg/mL) were incubated with various concentrations of Caspofungin (0-150 μM) for 24 h, both in the presence or absence of diclofenac. After washing, the remaining living cells within the biofilm was determined by CellTiter-Blue quantification. The MIC50 of caspofungin, diclofenac and the combination of both drugs against pretreated or mature C. albicans biofilms was quantified by XTT reduction assay (Ramage et al.).
as §1

[4] = test system: C. albicans CAF2 biofilms on implanted catheter fragments; experiment: Rat subcutaneous catheter infection model (in vivo biofilm susceptibility); design: species or system Candida albicans; conditions: rats
Method: A rat subcutaneous catheter infection model was used for in vivo biofilm susceptibility studies, in which 6 rats were treated with sterile saline (control, 40 catheters), 6 rats with diclofenac (48 catheters), 5 rats with caspofungin (40 catheters) and 6 rats with a combination of diclofenac and caspofungin (45 catheters).
Diclofenac and caspofungin solutions for intravenous injection were prepared in sterile physiological solution. The administration of diclofenac (3 mg/kg) started immediately after the catheter implant and continued daily up to 9 days. The treatment with caspofungin (3 mg/kg) was initiated after 48 h of in vivo biofilm development and maintained by daily injections for 7 days. Sterile saline was administered to the control group. Further analysis and quantification of the number of cells per individual biofilm was performed as previously described. Statistical analysis was performed using unpaired t-test; differences were considered significant if p<0.05. Data are the means and SEM of 2 independent experiments. Six independent catheters retrieved from each test group were used for scanning electron microscopy (SEM) analyses. Prior to the SEM analysis, each catheter fragment was cut longitudinally through the lumen and subsequently prepared for microscopy as previously described.

[5] = test system: C. albicans biofilm cells; experiment: Membrane permeability by propidium iodide fluorescence; format: cell-based, Candida albicans; conditions: 2 mM diclofenac during adhesion and growth phase, 24 h, RPMI 1640
Method: This was further investigated by evaluating the membrane-disruptive activity of diclofenac on in vitro grown C. albicans biofilm cells by measuring the fluorescence enhancement of propidium iodide (PI). To this end, C. albicans biofilms were grown in RPMI 1640 (pH 7.0) in the presence or absence of diclofenac (ranging from 0.25-4 mM) for 24 h. Next, the biofilm cells were incubated with 3% PI for 20 minutes at room temperature in the dark. Membrane permeability was quantified by measurement of PI fluorescence (excitation at 535 nm, emission at 617 nm).

C. albicans WT biofilms = experiment: Biofilm survival by CFU determination (plating on YPD); format: cell-based, Candida albicans; conditions: 500 μg/ml diclofenac alone
Method: Using the same setup as in Example 2, WT biofilms grown in the presence or absence of diclofenac (500 μg/ml) or Δefg1 biofilms were incubated with various concentrations of Amphotericin B (AmB) (2.5-10 μg/ml) for 24 h, both in the presence or absence of diclofenac. After washing, the remaining living cells within the biofilm were determined by plating on YPD and determination of colony forming units (CFUs).

C. albicans cells = experiment: Morphology of planktonic and biofilm cells (fluorescence microscopy); format: cell-based, Candida albicans; conditions: pretreated with diclofenac alone, 0.5-3 mM
Method: However, the morphology of biofilm cells pretreated with diclofenac alone (ranging from 0.5-3 mM), was not altered.

[6] = test system: C. albicans biofilms of wild type CAF2; experiment: Biofilm activity assay, crystal violet quantification (BEC50); format: cell-based, Candida albicans; conditions: 500 μg/ml diclofenac in the absence of miconazole
Method: Biofilm activity assay. The activity of miconazole and fluconazole against 16 h-old C. albicans biofilms (10^7 cells/well) was assessed using the crystal violet quantification method. The biofilm-eradicating capacity of a compound was determined as the minimal concentration resulting in 50% eradication of the biofilm (BEC50).
Miconazole sensitivity was analyzed of biofilms of C. albicans homozygous null mutants affected in genes involved in the cyclic AMP signaling pathway, namely Δcdc35, Δras1, Δpde1, Δpde2 and Δefg1. To this end, the inventors incubated 16 h-old C. albicans biofilms with various concentrations of miconazole for 24 h and determined the remaining biomass using the crystal violet quantification method.
To this end, cultures of the WT CAF2-1 were grown overnight (2×10^8 cells/ml) in YPD (1% yeast extract, 2% peptone, 2% glucose) and washed 3 times in PBS (pH 7.4). After dilution (OD600=0.5) in SC (1% CSM, complete amino acid supplement mixture, 1% YNB, yeast nitrogen base; 2% glucose), the cultures were resuspended (100 μl/well) in a 96well microtiter plate. After 1 h of adhesion, the adherent WT cells were incubated with or without 500 μg/ml diclofenac and allowed biofilm formation for 16 h. Next, the resulting biofilms were washed with PBS and treated with various concentrations of miconazole for 24 h in the absence or presence of diclofenac. After washing, the remaining biomass was determined using the crystal violet quantification method.
The biofilm-eradicating capacity of a compound was determined as the minimal concentration resulting in 50% eradication of the biofilm (BEC50).

## O=C(O)Cc1ccccc1Nc1c(Cl)cccc1Cl [diclofenac]
[1]
  inhibitory activity against planktonic cells: no inhibitory activity
[2]
  number of biofilm cells compared to untreated catheters: no significant difference
[3]
  MIC50: 2000 µM
[4]; diclofenac alone
  biofilm structure by scanning electron microscopy: no biofilm-inhibitory effect
[4]; diclofenac alone 3 mg/kg intravenous daily, 48 h pretreatment and up to 7 days further
  number of biofilm cells on catheters compared to control treatment: no significant difference
[5]
  membrane permeability compared to untreated cells: significantly increased membrane permeability
C. albicans WT biofilms
  less biofilm cells compared to untreated WT biofilms: about 50%
C. albicans cells
  morphology of biofilm cells: not altered
[6]
  remaining C. albicans biofilms compared to untreated WT biofilms: about 50%
